The source of these data is ChEMBL document CHEMBL3045781, “Sensitivity monitoring of powdery mildew pathogens to cyflufenamid and the evaluation of resistance risk” (J Pestic Sci, 2006).

Assay [1] relates to Blumeria graminis f. sp. tritici. As to the kind of experiment: Antifungal activity against Blumeria graminis f. sp. tritici after 6.25 g/ha 16 applications of compound by selection pressure test. In kind it is functional, organism-based.
For assay [2], the system named is Podosphaera fusca. The experiment in a line: Antifungal activity against triflumizole-resistant Sphaerotheca cucurbitae SFTFR-1. The assay is classed as functional.
Assay [3] relates to Podosphaera fusca. As to the kind of experiment: Antifungal activity against Sphaerotheca cucurbitae in compound treated cucumber leaves at 20 degC measured after 5 days by leaf disk assay. In kind it is functional, organism-based.
Assay [4] has as its system Podosphaera fusca. The experiment in a line: Antifungal activity against kresoxim-methyl-resistant Sphaerotheca cucurbitae SFKMR-1. In kind it is functional.
Assay [5] deals with Podosphaera fusca. The experiment in a line: Antifungal activity against wild type Sphaerotheca cucurbitae SFS-1. The assay is classed as functional.
Assay [6] relates to Blumeria graminis f. sp. tritici. As to the kind of experiment: Antifungal activity against Blumeria graminis f. sp. tritici after 6.25 g/ha 6 applications of compound in pot by selection pressure test (Control = 0.097 ppm). In kind it is functional, organism-based.
Assay [7] shares this test system. As to the kind of experiment: Antifungal activity against Blumeria graminis f. sp. tritici strains in compound treated wheat seedlings measured after 7 days by pot assay. The assay is classed as functional, organism-based.
In assay [8] the test system is Podosphaera fusca. As to the kind of experiment: Antifungal activity against thiophanate-methyl-resistant Sphaerotheca cucurbitae SFTMR-1. The assay is classed as functional.
Assay [9] relates to Blumeria graminis f. sp. tritici. The experiment in a line: Antifungal activity against Blumeria graminis f. sp. tritici strains by leaf segment floating assay. In kind it is functional, organism-based.

In brackets after ≈: the same amount, converted by molar mass.

On to `O=C(Cc1ccccc1)N/C(=N\OCC1CC1)c1c(C(F)(F)F)ccc(F)c1F` [CYFLUFENAMID], for which the EC50 in assay [1] is listed as 0.0008 ppm; in the assay on Podosphaera fusca [3], 0.0019 ppm; in assay [6], 0.007 ppm; in assay [7], 0.029 ppm; in assay [9], 0.0011 ppm. The MIC (as a rule, the smallest concentration in the dilution series that meets the test's criterion for growth inhibition) in the assay on Podosphaera fusca [2] came out at 0.8 µg/mL (≈ 1.94 µM); in the assay with Podosphaera fusca [3] (Podosphaera fusca, 120 h), 1 ng/mL (≈ 0.00243 µM); in the assay on Podosphaera fusca [4], 0.8 µg/mL (≈ 1.94 µM); with Podosphaera fusca [5], 0.8 µg/mL (≈ 1.94 µM); in assay [7] (Blumeria graminis, 168 h), 0.2 µg/mL (≈ 0.485 µM); with Podosphaera fusca [8] it was 0.8 µg/mL (≈ 1.94 µM).

Take `CO/N=C(/C(=O)OC)c1ccccc1COc1ccccc1C` [KRESOXIM-METHYL]: the MIC was > 100 µg/mL with Podosphaera fusca [4] and 0.8 µg/mL (≈ 2.55 µM) in the assay with Podosphaera fusca [5].

For the compound `COC(=O)NC(=S)Nc1ccccc1NC(=S)NC(=O)OC` [THIOPHANATE METHYL], the MIC in the assay with Podosphaera fusca [5] was 1 µg/mL (≈ 2.92 µM); against Podosphaera fusca [8], > 100 µg/mL.

As for `CCCOC/C(=N\c1ccc(Cl)cc1C(F)(F)F)n1ccnc1` [TRIFLUMIZOLE], the MIC in the assay on Podosphaera fusca [2] came out at 5 µg/mL (≈ 14.5 µM); against Podosphaera fusca [5] it was 0.1 µg/mL (≈ 0.289 µM).
